In ChEMBL document CHEMBL1909046, “DrugMatrix in vitro pharmacology data”:
Where a SMILES comes first, the peptide text is derived from it. Bridges are numbered along the chain shown (N, C = ends). [ ]: non-standard residue; d: D form. The star is where a group is joined. Threoninol(2S,3R) = C[C@@H](O)[C@H](CO)N*

Tests used:
Substance-P receptor = Substance-P receptor (Homo sapiens, UniProt P25103); format: cell membranes, Membrane; settings: cho; further: in other assays of this panel Not Active means under 50% inhibition at 10 µM
Substance-P receptor, sequence (P25103 whole entry): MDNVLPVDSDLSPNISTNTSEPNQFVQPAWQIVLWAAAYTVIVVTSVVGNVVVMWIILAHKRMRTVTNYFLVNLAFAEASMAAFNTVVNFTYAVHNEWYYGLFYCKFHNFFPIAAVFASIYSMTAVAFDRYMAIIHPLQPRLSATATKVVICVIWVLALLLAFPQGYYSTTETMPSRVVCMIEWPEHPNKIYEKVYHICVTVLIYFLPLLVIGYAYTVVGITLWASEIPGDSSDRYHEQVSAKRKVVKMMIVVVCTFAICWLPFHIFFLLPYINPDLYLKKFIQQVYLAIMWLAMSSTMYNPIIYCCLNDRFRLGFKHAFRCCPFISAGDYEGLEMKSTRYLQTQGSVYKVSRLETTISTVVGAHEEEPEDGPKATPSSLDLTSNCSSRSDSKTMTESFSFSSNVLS

[1] = DRUGMATRIX: Glutamate, NMDA, Phencyclidine radioligand binding (ligand: [3H] TCP); format: cell membranes, Rattus norvegicus, Wistar, Cerebral cortex, Membrane; settings: Not Active = under 50% inhibition at 10 µM
[2] = molecular target: Kappa-type opioid receptor (Homo sapiens, UniProt P41145); assay: DRUGMATRIX: Opiate kappa (OP2, KOP) radioligand binding (ligand: [3H] Diprenorphine); format: cell membranes, HEK293, Membrane; settings: hek293; Not Active = under 50% inhibition at 10 µM
Kappa-type opioid receptor, sequence (P41145 whole entry): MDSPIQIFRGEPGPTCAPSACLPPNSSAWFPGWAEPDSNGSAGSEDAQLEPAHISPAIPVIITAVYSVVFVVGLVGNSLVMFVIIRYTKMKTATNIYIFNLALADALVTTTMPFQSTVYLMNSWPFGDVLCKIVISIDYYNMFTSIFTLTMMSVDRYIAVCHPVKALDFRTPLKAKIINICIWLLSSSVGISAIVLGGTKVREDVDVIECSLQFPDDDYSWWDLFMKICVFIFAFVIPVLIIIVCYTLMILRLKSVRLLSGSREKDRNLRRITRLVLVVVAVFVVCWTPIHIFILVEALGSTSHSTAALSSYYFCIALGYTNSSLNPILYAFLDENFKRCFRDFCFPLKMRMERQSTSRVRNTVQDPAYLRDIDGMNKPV

[3] = DRUGMATRIX: Platelet-Derived Growth Factor (PDGF) radioligand binding (ligand: [125I] PDGF); format: cell-based; settings: nih3t3; Not Active = under 50% inhibition at 10 µM
[4] = molecular target: 5-hydroxytryptamine receptor 1B (Rattus norvegicus, UniProt P28564); format: cell membranes, Wistar, Cerebral cortex, Membrane; further: in other assays of this panel Not Active means under 50% inhibition at 10 µM
5-hydroxytryptamine receptor 1B, sequence (P28564 whole entry): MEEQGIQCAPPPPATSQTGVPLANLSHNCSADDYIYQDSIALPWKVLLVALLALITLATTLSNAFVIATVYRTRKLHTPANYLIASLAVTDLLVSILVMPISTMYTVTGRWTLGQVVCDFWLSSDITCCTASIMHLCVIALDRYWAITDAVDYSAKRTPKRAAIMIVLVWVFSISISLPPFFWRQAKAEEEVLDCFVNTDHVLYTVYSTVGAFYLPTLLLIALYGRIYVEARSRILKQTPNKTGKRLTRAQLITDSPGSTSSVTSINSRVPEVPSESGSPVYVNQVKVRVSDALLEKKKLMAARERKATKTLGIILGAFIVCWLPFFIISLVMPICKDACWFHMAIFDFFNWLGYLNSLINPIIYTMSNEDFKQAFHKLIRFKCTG

Cytochrome P450 2C9 = Cytochrome P450 2C9 (Homo sapiens, UniProt P11712); settings: bti-tn-5b1-4; further: in other assays of this panel Not Active means under 50% inhibition at 10 µM
Cytochrome P450 2C9, sequence (P11712 whole entry): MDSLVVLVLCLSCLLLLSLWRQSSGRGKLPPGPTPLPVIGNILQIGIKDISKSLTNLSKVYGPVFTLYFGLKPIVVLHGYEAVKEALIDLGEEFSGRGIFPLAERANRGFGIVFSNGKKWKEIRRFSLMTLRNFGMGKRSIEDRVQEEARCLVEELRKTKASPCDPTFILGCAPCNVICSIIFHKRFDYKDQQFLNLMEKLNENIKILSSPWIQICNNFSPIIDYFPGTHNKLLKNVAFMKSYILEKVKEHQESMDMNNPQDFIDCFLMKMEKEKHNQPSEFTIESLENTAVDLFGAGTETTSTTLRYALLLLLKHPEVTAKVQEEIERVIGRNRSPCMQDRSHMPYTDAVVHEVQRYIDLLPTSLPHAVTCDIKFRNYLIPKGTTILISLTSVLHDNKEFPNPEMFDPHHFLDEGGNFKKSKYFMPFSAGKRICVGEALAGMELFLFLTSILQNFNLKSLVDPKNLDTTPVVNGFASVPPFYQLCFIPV

[5] = molecular target: Voltage-gated inwardly rectifying potassium channel KCNH2 (Homo sapiens, UniProt Q12809); settings: hek293; further: in other assays of this panel Not Active means under 50% inhibition at 10 µM
Voltage-gated inwardly rectifying potassium channel KCNH2, sequence (Q12809 whole entry): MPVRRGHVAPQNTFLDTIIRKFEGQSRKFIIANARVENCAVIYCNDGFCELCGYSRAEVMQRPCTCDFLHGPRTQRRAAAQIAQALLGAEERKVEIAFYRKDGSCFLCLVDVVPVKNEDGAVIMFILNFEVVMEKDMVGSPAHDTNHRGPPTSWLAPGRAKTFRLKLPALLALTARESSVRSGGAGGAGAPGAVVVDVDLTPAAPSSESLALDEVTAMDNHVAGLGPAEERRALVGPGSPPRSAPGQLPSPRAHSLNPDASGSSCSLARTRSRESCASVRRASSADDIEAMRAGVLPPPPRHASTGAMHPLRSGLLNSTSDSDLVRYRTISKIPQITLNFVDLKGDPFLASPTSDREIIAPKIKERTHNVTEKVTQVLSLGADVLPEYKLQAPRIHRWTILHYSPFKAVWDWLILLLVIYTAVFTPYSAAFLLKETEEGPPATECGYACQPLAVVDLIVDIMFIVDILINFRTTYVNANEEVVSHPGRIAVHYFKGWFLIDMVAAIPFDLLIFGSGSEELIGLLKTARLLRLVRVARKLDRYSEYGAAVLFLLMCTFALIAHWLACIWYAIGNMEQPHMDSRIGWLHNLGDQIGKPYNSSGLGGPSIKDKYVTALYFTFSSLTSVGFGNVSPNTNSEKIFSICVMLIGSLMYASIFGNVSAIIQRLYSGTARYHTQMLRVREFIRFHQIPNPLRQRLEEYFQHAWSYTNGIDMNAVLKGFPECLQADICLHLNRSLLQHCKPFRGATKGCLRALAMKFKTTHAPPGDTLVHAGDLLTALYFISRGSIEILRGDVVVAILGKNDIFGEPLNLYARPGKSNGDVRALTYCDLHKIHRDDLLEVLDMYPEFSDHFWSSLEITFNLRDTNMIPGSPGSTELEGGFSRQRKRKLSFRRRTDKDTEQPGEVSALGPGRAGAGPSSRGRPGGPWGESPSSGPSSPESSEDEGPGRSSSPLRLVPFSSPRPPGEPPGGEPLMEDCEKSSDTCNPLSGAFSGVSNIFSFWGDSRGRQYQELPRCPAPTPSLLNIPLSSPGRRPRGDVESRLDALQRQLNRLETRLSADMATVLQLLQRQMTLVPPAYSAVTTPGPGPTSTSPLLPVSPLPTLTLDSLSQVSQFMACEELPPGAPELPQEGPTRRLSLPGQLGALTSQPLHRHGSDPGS

O=C1CC[C@H](N2C(=O)c3ccccc3C2=O)C(=O)N1
Not Active: IC50 (Substance-P receptor) | IC50 [1] | Ki [1] | IC50 [2] | IC50 [3] | Ki [3] | IC50 [4] | IC50 (Cytochrome P450 2C9) | Ki (Cytochrome P450 2C9) | IC50 [5] | Ki [5]

N=C(Nc1ccccc1)Nc1ccccc1
Not Active: IC50 (Substance-P receptor) | IC50 [1] | Ki [1] | IC50 [2] | IC50 [3] | Ki [3] | IC50 [4] | IC50 (Cytochrome P450 2C9) | Ki (Cytochrome P450 2C9)

C[C@@H](O)[C@H](CO)NC(=O)[C@@H]1CSSC[C@H](NC(=O)[C@H](N)Cc2ccccc2)C(=O)N[C@@H](Cc2ccccc2)C(=O)N[C@H](Cc2c[nH]c3ccccc23)C(=O)N[C@@H](CCCCN)C(=O)N[C@@H]([C@@H](C)O)C(=O)N1 (H-[dF]CF[dW]KTC-{Threoninol(2S,3R)}; disulfide 2-7)
Not Active: IC50 (Substance-P receptor) | IC50 [1] | Ki [1] | IC50 [2] | IC50 [3] | Ki [3] | IC50 [4] | IC50 (Cytochrome P450 2C9) | Ki (Cytochrome P450 2C9) | IC50 [5] | Ki [5]

C[C@](O)(CS(=O)(=O)c1ccc(F)cc1)C(=O)Nc1ccc(C#N)c(C(F)(F)F)c1 [(R)-BICALUTAMIDE]
Not Active: IC50 (Substance-P receptor) | IC50 [1] | Ki [1] | IC50 [2] | IC50 [3] | Ki [3] | IC50 [4] | IC50 (Cytochrome P450 2C9) | Ki (Cytochrome P450 2C9) | IC50 [5] | Ki [5]

COc1cc2c(c3oc(=O)c4c(c13)CCC4=O)[C@@H]1C=CO[C@@H]1O2 [AFLATOXIN]
Not Active: IC50 (Substance-P receptor) | Ki (Substance-P receptor) | IC50 [1] | Ki [1] | IC50 [2] | Ki [2] | IC50 [3] | Ki [3] | IC50 [4] | Ki [4] | IC50 (Cytochrome P450 2C9) | Ki (Cytochrome P450 2C9) | IC50 [5] | Ki [5]

N=C(N)NC(=O)c1nc(Cl)c(N)nc1N [AMILORIDE]
Not Active: IC50 (Substance-P receptor) | IC50 [1] | Ki [1] | IC50 [2] | IC50 [3] | Ki [3] | IC50 [4] | IC50 (Cytochrome P450 2C9) | Ki (Cytochrome P450 2C9) | IC50 [5] | Ki [5]

CN1C(=O)COc2c(C(=O)NC3CN4CCC3CC4)cc(Cl)cc21 (stereo not given) [AZASETRON]
Not Active: IC50 (Substance-P receptor) | IC50 [1] | Ki [1] | IC50 [2] | IC50 [3] | Ki [3] | IC50 [4] | IC50 (Cytochrome P450 2C9) | Ki (Cytochrome P450 2C9) | IC50 [5] | Ki [5]

C[C@H]1C[C@H]2[C@@H]3CCC4=CC(=O)C=C[C@]4(C)[C@@]3(Cl)[C@@H](O)C[C@]2(C)[C@@]1(O)C(=O)CO [BECLOMETHASONE]
Not Active: IC50 (Substance-P receptor) | IC50 [1] | Ki [1] | IC50 [2] | IC50 [3] | Ki [3] | IC50 [4] | IC50 (Cytochrome P450 2C9) | Ki (Cytochrome P450 2C9) | IC50 [5] | Ki [5]

CCOC(=O)[C@H](CCc1ccccc1)N[C@H]1CCc2ccccc2N(CC(=O)O)C1=O [BENAZEPRIL]
Not Active: IC50 (Substance-P receptor) | IC50 [1] | Ki [1] | IC50 [2] | IC50 [3] | Ki [3] | IC50 [4] | IC50 (Cytochrome P450 2C9) | Ki (Cytochrome P450 2C9) | IC50 [5] | Ki [5]

Nc1c(CC(=O)O)cccc1C(=O)c1ccc(Br)cc1 [BROMFENAC]
Not Active: IC50 (Substance-P receptor) | IC50 [1] | Ki [1] | IC50 [2] | IC50 [3] | Ki [3] | IC50 [4] | IC50 (Cytochrome P450 2C9) | Ki (Cytochrome P450 2C9) | IC50 [5] | Ki [5]

CCCCN1CCCCC1C(=O)Nc1c(C)cccc1C.Cl (stereo not given) [BUPIVACAINE HYDROCHLORIDE]
Not Active: IC50 (Substance-P receptor) | IC50 [1] | Ki [1] | IC50 [2] | IC50 [3] | Ki [3] | IC50 [4] | IC50 (Cytochrome P450 2C9) | Ki (Cytochrome P450 2C9) | IC50 [5] | Ki [5]

O=C1CC2(CCCC2)CC(=O)N1CCCCN1CCN(c2ncccn2)CC1 [BUSPIRONE]
Not Active: IC50 (Substance-P receptor) | IC50 [1] | Ki [1] | IC50 [2] | IC50 [3] | Ki [3] | IC50 [4] | IC50 (Cytochrome P450 2C9) | Ki (Cytochrome P450 2C9) | IC50 [5] | Ki [5]

ClC(Cl)Cl [CHLOROFORM]
Not Active: IC50 (Substance-P receptor) | IC50 [1] | Ki [1] | IC50 [2] | IC50 [3] | Ki [3] | IC50 [4] | IC50 (Cytochrome P450 2C9) | Ki (Cytochrome P450 2C9) | IC50 [5] | Ki [5]

C=C1CC[C@H](O)C/C1=C/C=C1\CCC[C@]2(C)[C@@H]([C@H](C)CCCC(C)C)CC[C@@H]12 [CHOLECALCIFEROL]
Not Active: IC50 (Substance-P receptor) | IC50 [1] | Ki [1] | IC50 [2] | IC50 [3] | Ki [3] | IC50 [4] | IC50 (Cytochrome P450 2C9) | Ki (Cytochrome P450 2C9) | IC50 [5] | Ki [5]

C[N+](C)(C)CCO.[Cl-] [CHOLINE CHLORIDE]
Not Active: IC50 (Substance-P receptor) | IC50 [1] | Ki [1] | IC50 [2] | IC50 [3] | Ki [3] | IC50 [4] | IC50 (Cytochrome P450 2C9) | Ki (Cytochrome P450 2C9) | IC50 [5] | Ki [5]

CC(=O)OCC(=O)[C@@]1(O)CC[C@H]2[C@@H]3CCC4=CC(=O)CC[C@]4(C)[C@H]3C(=O)C[C@@]21C [CORTISONE ACETATE]
Not Active: IC50 (Substance-P receptor) | IC50 [1] | Ki [1] | IC50 [2] | IC50 [3] | Ki [3] | IC50 [4] | IC50 (Cytochrome P450 2C9) | Ki (Cytochrome P450 2C9) | IC50 [5] | Ki [5]

C[C@]12CC[C@@H]3c4ccc(O)cc4CC[C@H]3[C@@H]1CC[C@@H]2O [ESTRADIOL]
Not Active: IC50 (Substance-P receptor) | IC50 [1] | Ki [1] | IC50 [2] | IC50 [3] | Ki [3] | IC50 [4] | IC50 (Cytochrome P450 2C9) | Ki (Cytochrome P450 2C9)

CCOC(=O)C1=C(C)NC(C)=C(C(=O)OC)C1c1cccc([N+](=O)[O-])c1 (stereo not given) [NITRENDIPINE]
Not Active: IC50 (Substance-P receptor) | IC50 [1] | Ki [1] | IC50 [2] | IC50 [3] | Ki [3] | IC50 [4] | IC50 [5] | Ki [5]
